Results as given in publication PMC12714254, “Exploiting peptide chirality and transport to dissect the complex mechanism of action of host peptides on bacteria” (PLOS Genetics, 2025).

Legend:
[1] = test system: in vitro coupled transcription-translation (GFP reporter); assay: In vitro translation assay, GFP fluorescence; type: biochemical; details: same molarity, S3C Fig
[2] = test system: S. meliloti cell cycle; design: method as in PMID 24501120; details: ref [12]; cited from earlier work

Substance | translation inhibition by LL37 vs NCR247 [1] | cell cycle changes [2]
LL37: cationic peptide LL37 (LLGDFFRKSKEKIGKEFKRIVQRIKDFLRNLVPRTES; Antibacterial peptide LL-37; UniProt P49913 134-170, looked up) | very diminished phenotype as compared to the L-NCR247 and was lesser than the inhibition by D-NCR247 | cannot elicit cell cycle changes
Polymyxin B | – | cannot elicit cell cycle changes
